A value given as a limit tells only on which side of the number the result lay.

The values below come from ChEMBL document CHEMBL3407404, “Cyclopentyl-pyrimidine based analogues as novel and potent IGF-1R inhibitor” (Eur J Med Chem, 2015).

In data set [1] the target is Insulin-like growth factor 1 receptor (Homo sapiens, UniProt P08069). Nature of the data set: Inhibition of IGF1R (unknown origin) using poly-G1 as substrate incubated for 10 mins prior to substrate addition measured after 1 hr by time-resolved fluorescence assay.
Insulin-like growth factor 1 receptor, sequence (P08069 31-736 limits assumed): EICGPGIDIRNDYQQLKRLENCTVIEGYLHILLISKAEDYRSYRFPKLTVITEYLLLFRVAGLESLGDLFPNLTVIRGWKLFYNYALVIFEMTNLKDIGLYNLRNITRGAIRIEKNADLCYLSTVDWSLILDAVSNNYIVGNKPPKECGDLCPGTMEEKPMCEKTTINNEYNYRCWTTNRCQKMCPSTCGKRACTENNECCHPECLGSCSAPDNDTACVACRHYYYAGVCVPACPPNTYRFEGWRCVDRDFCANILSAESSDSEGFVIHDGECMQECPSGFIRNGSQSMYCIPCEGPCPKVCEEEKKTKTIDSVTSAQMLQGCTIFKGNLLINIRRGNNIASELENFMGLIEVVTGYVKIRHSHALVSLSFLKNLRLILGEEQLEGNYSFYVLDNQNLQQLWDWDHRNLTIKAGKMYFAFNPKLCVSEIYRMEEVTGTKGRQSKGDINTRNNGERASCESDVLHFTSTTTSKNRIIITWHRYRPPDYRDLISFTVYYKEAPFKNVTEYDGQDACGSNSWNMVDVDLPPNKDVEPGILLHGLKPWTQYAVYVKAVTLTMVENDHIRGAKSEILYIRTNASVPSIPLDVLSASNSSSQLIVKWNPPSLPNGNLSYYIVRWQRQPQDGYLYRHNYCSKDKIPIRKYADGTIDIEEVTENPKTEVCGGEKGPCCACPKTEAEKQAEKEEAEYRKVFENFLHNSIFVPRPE
Insulin-like growth factor 1 receptor, sequence (P08069 741-1367 limits assumed): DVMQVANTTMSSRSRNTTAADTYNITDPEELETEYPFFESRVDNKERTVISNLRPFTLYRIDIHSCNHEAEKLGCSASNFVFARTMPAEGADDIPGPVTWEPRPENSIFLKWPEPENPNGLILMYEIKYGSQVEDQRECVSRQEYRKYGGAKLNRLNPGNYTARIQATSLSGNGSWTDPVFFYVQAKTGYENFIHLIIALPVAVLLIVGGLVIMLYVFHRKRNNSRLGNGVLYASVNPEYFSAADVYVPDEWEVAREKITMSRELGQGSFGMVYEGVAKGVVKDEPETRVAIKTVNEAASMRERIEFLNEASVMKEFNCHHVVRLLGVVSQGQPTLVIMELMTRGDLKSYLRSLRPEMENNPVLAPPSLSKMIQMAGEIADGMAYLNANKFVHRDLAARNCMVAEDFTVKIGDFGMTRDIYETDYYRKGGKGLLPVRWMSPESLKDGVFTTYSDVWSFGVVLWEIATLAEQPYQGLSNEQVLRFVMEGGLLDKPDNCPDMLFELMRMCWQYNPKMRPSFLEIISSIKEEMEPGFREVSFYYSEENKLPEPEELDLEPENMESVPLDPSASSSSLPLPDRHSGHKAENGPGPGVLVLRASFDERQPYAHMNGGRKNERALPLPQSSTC
The next data set concerns the target Insulin receptor (Homo sapiens, UniProt P06213). The data set is described as follows: Inhibition of IR (unknown origin) using poly-G1 as substrate incubated for 10 mins prior to substrate addition measured after 1 hr by time-resolved fluorescence assay.
A short description of data set [2]: Growth inhibition of human H460 cells after 48 hrs by propidium iodide staining-based fluorescence assay. Type of data set: functional, cell-based. Particulars: NCI-H460, 48 h; call rule not given here.
The next data set relates to A-431. The data set is described as follows: Growth inhibition of human A431 cells after 48 hrs by propidium iodide staining-based fluorescence assay. Type of data set: functional, cell-based. Particulars: A-431, 48 h.
The nature of data set [3]: Growth inhibition of human HCT116 cells after 48 hrs by propidium iodide staining-based fluorescence assay. Type of data set: functional, cell-based. Particulars: HCT-116, 48 h.
A short description of data set [4]: Growth inhibition of human COLO205 cells after 48 hrs by propidium iodide staining-based fluorescence assay. Type of data set: functional, cell-based. Particulars: COLO 205, 48 h.
The next data set has as its system MDA-MB-231. Nature of the data set: Growth inhibition of human MDA-MB-231 cells after 48 hrs by propidium iodide staining-based fluorescence assay. The class given is functional, cell-based. Particulars: MDA-MB-231, 48 h.
A further data set relates to MCF7. The data set is described as follows: Growth inhibition of human MCF7 cells after 48 hrs by propidium iodide staining-based fluorescence assay. The class given is functional, cell-based. Particulars: MCF7, 48 h.
In the next data set the test system is NCI-H1975. The data set is described as follows: Growth inhibition of human NCI-H1975 cells after 48 hrs by propidium iodide staining-based fluorescence assay. The class given is functional, cell-based. Particulars: NCI-H1975, 48 h.
Data set [5] is described as follows: Half life in Sprague-Dawley rat at 10 mg/kg, po. The class given is ADME, organism-based. Further details: dose 10 mg/kg, route oral. Particulars: in vivo.
Data set [6] in a line: Half life in Sprague-Dawley rat at 2 mg/kg, iv. Type of data set: ADME, organism-based. On the set-up: dose 2 mg/kg, route intravenous. Particulars: in vivo.
Data set [7] is described as follows: Initial concentration in Sprague-Dawley rat at 2 mg/kg, iv. Type of data set: ADME, organism-based. On the set-up: dose 2 mg/kg, route intravenous. Particulars: in vivo.
Data set [8] in a line: Clearance in Sprague-Dawley rat at 2 mg/kg, iv. Type of data set: ADME, organism-based. On the set-up: dose 2 mg/kg, route intravenous. Particulars: in vivo.
Data set [9] can be described thus: Volume of distribution at steady state in Sprague-Dawley rat at 2 mg/kg, iv. Type of data set: ADME, organism-based. Further details: dose 2 mg/kg, route intravenous. Particulars: in vivo, read-out: Vdss.
Data set [10] can be described thus: Oral bioavailability in Sprague-Dawley rat at 10 mg/kg. The class given is ADME, organism-based. Particulars: in vivo.

Insulin receptor, sequence (P06213 28-758 limits assumed): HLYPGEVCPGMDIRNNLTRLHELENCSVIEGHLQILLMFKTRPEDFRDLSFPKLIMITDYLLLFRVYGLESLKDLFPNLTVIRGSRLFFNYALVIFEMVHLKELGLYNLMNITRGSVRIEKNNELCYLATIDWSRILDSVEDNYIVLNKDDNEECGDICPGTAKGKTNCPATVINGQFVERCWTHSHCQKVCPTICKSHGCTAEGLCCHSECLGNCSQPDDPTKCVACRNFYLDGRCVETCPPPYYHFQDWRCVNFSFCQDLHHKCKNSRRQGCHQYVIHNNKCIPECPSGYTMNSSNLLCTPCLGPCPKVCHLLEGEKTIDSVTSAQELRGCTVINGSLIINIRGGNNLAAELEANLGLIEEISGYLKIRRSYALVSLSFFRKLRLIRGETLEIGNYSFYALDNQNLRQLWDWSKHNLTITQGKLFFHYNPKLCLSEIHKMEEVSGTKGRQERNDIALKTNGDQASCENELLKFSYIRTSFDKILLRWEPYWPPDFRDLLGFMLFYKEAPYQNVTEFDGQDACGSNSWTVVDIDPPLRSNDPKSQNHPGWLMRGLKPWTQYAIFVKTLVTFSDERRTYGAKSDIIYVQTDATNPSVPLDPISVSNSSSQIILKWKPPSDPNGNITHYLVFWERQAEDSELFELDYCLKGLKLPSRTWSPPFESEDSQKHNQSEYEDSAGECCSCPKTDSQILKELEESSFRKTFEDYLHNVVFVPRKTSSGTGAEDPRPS
Insulin receptor, sequence (P06213 763-1382 limits assumed): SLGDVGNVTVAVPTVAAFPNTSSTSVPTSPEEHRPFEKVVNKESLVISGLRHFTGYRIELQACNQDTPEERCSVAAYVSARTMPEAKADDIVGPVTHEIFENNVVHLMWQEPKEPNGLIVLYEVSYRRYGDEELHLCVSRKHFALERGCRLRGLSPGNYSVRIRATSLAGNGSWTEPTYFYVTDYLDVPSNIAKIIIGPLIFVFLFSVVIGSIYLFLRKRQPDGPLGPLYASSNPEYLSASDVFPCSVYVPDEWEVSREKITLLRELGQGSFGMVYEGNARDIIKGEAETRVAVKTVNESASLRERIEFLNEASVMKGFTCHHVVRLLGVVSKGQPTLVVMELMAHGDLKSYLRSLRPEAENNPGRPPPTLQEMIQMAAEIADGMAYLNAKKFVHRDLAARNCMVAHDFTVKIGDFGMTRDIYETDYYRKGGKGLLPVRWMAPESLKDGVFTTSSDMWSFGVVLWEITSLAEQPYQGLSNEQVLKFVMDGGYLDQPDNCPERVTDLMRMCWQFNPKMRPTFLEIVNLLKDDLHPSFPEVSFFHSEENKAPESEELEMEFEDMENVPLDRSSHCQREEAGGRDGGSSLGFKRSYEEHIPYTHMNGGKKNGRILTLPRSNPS

For the compound `Cc1cc(Nc2nc(N3CCC(C)CC3)nc3c2CCC3)n[nH]1`, the IC50 (as a rule, the concentration that inhibits the measured activity by half) in [1] is “Not Active”.
For the compound `CN(C)CCN(C)c1nc2c(c(Nc3cc(C4CC4)[nH]n3)n1)CCC2`, the IC50 in data set [1] (read-out: IC50) is above 1000 nM.
For `c1c(Nc2nc(N3CCNCC3)nc3c2CCC3)n[nH]c1C1CC1`, the IC50 in data set [1] (read-out: IC50) was above 1000 nM.
On to `c1c(Nc2nc(N3CCCCC3)nc3c2CCC3)n[nH]c1C1CC1`, for which, in data set [1] (read-out: IC50), the IC50 was determined as 32 nM.
As for `OCC1CCCN(c2nc3c(c(Nc4cc(C5CC5)[nH]n4)n2)CCC3)C1` (centres undefined), in [1] (read-out: IC50), the IC50 is 90 nM.
Regarding `CCN(CC)C(=O)C1CCCN(c2nc3c(c(Nc4cc(C5CC5)[nH]n4)n2)CCC3)C1` (centres undefined), in data set [1] (read-out: IC50), the IC50 came to 184 nM.
Consider `CC1CCN(c2nc3c(c(Nc4cc(C5CC5)[nH]n4)n2)CCC3)CC1`, for which the IC50 in [1] (read-out: IC50) was 20 nM; on Insulin receptor it was 110 nM; in data set [2], 180 nM; in the data set on A-431, 340 nM; in data set [3] it was 350 nM; in [4] it was 2190 nM. The IC50 in the data set with MDA-MB-231 is 700 nM; with MCF7, 1670 nM; with NCI-H1975, 3000 nM. Besides, the half-life (in general, how long it takes for the measured level to halve) in data set [5] was 52.2 min; in data set [6] it was 51 min. The compound further displayed a C0 in data set [7] of 1050 ng/mL. Also, the clearance (as a rule, a measure of how efficiently the substance is removed, as volume per time) in data set [8] was 59.1 mL/min/kg. The Vd in data set [9] turned out to be 4.37 L/kg. Also, the bioavailability (as a rule, dose-corrected exposure relative to a reference, in per cent) in data set [10] turned out to be 11.3%.
As to `CC1(C)CCN(c2nc3c(c(Nc4cc(C5CC5)[nH]n4)n2)CCC3)CC1`, the IC50 in [1] (read-out: IC50) stood at 203 nM.
Take `CCOC(=O)C1CCN(c2nc3c(c(Nc4cc(C5CC5)[nH]n4)n2)CCC3)CC1`: the IC50 in [1] (read-out: IC50) is 35 nM.
For `N#CC1CCN(c2nc3c(c(Nc4cc(C5CC5)[nH]n4)n2)CCC3)CC1`, the IC50 in [1] (read-out: IC50) came to 124 nM.
For the compound `O=C(O)C1CCN(c2nc3c(c(Nc4cc(C5CC5)[nH]n4)n2)CCC3)CC1`, the IC50 in [1] (read-out: IC50) was above 1000 nM.
Same read-out and setting: then `c1c(Nc2nc(N3CCCCCC3)nc3c2CCC3)n[nH]c1C1CC1`, with 10 nM; and `c1c(Nc2nc(N3CCCCCCC3)nc3c2CCC3)n[nH]c1C1CC1`, with 58 nM; and `c1c(Nc2nc(N3CC4CCC3C4)nc3c2CCC3)n[nH]c1C1CC1` (centres undefined), with 41 nM.
Consider `c1ccc(CNc2nc3c(c(Nc4cc(C5CC5)[nH]n4)n2)CCC3)cc1`, for which, in data set [1] (read-out: IC50), the IC50 turned out to be 267 nM.
Turning to `Cc1ccc(CNc2nc3c(c(Nc4cc(C5CC5)[nH]n4)n2)CCC3)cc1`, in data set [1] (read-out: IC50), the IC50 was found to be 149 nM.
On to `CC1CCN(c2nc3c(c(Nc4cc(-c5ccccc5)[nH]n4)n2)CCC3)CC1`, for which the IC50 in [1] (read-out: IC50) is above 1000 nM.
Regarding `c1ccc(-c2cc(Nc3nc(N4CCCCCC4)nc4c3CCC4)n[nH]2)cc1`, the IC50 in [1] (read-out: IC50) was above 1000 nM.
As to `c1ccc(-c2nc3c(c(Nc4cc(C5CC5)[nH]n4)n2)CCC3)cc1`, the IC50 in data set [1] (read-out: IC50) is 97 nM.
Regarding `Cc1cc(Nc2nc(N3CCCCC3)nc3c2CCC3)n[nH]1`, the IC50 in data set [1] (read-out: IC50) turned out to be 442 nM.
As to `Cc1cc(Nc2nc(N3CCCCCC3)nc3c2CCC3)n[nH]1`, the IC50 in data set [1] (read-out: IC50) amounted to 2000 nM.
On the same count and under the same terms, then `CCOC(=O)C1CCCN(c2nc3c(c(Nc4cc(C)[nH]n4)n2)CCC3)C1` (centres undefined), with 970 nM; and `CC(C)(C)c1cc(Nc2nc(N3CCCCC3)nc3c2CCC3)n[nH]1`, with 251 nM.
In the case of `CC1CCN(c2nc3c(c(Nc4cc(C(C)(C)C)[nH]n4)n2)CCC3)CC1`, the IC50 in data set [1] (read-out: IC50) stood at 300 nM.
As for `CC(C)(C)c1cc(Nc2nc(N3CCCCCC3)nc3c2CCC3)n[nH]1`, in [1] (read-out: IC50), the IC50 came to 568 nM.
Consider `CCOC(=O)C1CCCN(c2nc3c(c(Nc4cc(C(C)(C)C)[nH]n4)n2)CCC3)C1` (centres undefined), for which the IC50 in [1] (read-out: IC50) is 108 nM.
Still for that read-out and setting: to `CC1CCN(c2nc(Nc3cc(C4CC4)[nH]n3)c3c(n2)C2CCC3C2)CC1` (centres undefined) belongs 1190 nM.
For `CC1CCN(c2nc(Nc3cc(C4CC4)[nH]n3)c3c(n2)C(F)(F)CC3)CC1`, the IC50 in data set [1] (read-out: IC50) came to 786 nM.
Take `CC1CCN(c2nc(Nc3cc(C4CC4)[nH]n3)c3c(n2)C(C)(C)CC3)CC1`: in [1] (read-out: IC50), the IC50 was 1500 nM.
Turning to `CC1CCN(c2nc(Nc3cc(C4CC4)[nH]n3)c3c(n2)C2(CCCC2)CC3)CC1`, in [1] (read-out: IC50), the IC50 was 2800 nM.
